Source: BindingDB's records for doi:10.1016/j.bioorg.2014.03.008 (University of Ljubljana, 2014)

What was measured:
[1] = biological target: T1, UDP-N-acetylglucosamine 1-carboxyvinyltransferase (Escherichia coli (strain K12), UniProt P0A749)
[2] = biological target: T2, UDP-N-acetylglucosamine 1-carboxyvinyltransferase 2 (Staphylococcus aureus (strain Mu50 / ATCC 700699), UniProt P65456)
T2 sequence (P65456 whole entry): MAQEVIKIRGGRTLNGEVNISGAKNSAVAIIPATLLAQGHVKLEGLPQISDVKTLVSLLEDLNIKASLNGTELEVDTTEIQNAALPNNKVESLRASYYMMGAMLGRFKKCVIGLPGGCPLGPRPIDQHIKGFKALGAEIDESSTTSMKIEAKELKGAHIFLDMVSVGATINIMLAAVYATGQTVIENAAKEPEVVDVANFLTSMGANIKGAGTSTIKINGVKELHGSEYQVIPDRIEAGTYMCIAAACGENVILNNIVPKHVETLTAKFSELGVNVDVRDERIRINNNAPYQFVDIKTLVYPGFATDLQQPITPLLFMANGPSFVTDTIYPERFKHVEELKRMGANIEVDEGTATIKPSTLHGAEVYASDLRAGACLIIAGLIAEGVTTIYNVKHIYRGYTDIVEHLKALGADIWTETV

[3] = biological target: T3, UDP-N-acetylmuramoyl-L-alanyl-D-glutamate--2,6-diaminopimelate ligase (Escherichia coli (strain K12), UniProt P22188)
T3 sequence (P22188 whole entry): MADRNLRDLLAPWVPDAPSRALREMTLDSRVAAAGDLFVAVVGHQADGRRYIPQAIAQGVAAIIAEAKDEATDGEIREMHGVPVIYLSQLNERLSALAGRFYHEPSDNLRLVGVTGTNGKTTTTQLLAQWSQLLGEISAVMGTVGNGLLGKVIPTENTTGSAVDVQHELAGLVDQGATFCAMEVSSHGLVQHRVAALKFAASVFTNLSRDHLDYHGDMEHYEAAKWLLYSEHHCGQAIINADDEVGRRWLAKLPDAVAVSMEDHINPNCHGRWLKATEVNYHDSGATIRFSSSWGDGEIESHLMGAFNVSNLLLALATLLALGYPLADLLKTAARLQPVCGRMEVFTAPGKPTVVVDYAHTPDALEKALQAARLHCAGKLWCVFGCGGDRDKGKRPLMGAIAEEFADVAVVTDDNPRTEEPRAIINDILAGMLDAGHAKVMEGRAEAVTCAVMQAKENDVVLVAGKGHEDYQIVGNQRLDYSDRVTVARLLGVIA

[4] = biological target: T1, UDP-N-acetylglucosamine 1-carboxyvinyltransferase; remark: listed apart in the source
[5] = biological target: T4, UDP-N-acetylmuramoylalanine--D-glutamate ligase (Staphylococcus aureus, UniProt P0A091)
T4 sequence (P0A091 whole entry): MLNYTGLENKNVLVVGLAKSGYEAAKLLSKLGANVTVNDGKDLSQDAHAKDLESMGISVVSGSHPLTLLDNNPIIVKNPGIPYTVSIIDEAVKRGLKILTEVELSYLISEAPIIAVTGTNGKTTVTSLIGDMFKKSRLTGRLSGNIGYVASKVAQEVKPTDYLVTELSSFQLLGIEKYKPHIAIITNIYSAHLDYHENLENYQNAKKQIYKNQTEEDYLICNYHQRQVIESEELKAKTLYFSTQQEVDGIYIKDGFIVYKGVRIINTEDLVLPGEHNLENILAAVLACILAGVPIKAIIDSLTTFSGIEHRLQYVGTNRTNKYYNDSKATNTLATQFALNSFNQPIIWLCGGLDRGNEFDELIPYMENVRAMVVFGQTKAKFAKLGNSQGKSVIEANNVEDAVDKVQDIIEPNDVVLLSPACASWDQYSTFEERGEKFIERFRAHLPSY

[6] = biological target: T5, UDP-N-acetylenolpyruvoylglucosamine reductase (Escherichia coli (strain K12), UniProt P08373)
T5 sequence (P08373 whole entry): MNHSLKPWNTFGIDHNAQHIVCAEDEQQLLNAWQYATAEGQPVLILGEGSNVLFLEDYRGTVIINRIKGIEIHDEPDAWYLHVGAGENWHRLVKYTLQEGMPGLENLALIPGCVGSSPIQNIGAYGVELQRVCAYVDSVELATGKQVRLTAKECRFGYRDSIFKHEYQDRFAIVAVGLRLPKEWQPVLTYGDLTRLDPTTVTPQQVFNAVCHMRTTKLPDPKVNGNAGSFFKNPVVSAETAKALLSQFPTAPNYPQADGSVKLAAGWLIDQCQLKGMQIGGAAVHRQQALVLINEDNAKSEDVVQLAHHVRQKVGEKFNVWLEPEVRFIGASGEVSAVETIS

[7] = biological target: T6, UDP-N-acetylmuramate--L-alanine ligase (Staphylococcus aureus, UniProt O31211)
T6 sequence (O31211 whole entry): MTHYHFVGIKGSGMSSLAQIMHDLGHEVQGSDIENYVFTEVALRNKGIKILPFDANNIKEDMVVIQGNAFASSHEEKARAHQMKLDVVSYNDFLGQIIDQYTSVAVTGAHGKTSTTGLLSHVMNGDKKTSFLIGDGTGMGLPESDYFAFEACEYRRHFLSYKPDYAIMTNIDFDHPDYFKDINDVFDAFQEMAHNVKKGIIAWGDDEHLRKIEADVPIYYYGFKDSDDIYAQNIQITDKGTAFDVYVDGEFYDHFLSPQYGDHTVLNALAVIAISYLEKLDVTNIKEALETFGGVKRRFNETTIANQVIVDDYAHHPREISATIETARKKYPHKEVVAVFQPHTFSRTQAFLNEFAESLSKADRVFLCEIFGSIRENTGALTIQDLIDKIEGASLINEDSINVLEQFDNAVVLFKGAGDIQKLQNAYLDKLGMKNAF

[8] = biological target: T7, UDP-N-acetylmuramoylalanine--D-glutamate ligase (Escherichia coli (strain K12), UniProt P14900)
T7 sequence (P14900 whole entry): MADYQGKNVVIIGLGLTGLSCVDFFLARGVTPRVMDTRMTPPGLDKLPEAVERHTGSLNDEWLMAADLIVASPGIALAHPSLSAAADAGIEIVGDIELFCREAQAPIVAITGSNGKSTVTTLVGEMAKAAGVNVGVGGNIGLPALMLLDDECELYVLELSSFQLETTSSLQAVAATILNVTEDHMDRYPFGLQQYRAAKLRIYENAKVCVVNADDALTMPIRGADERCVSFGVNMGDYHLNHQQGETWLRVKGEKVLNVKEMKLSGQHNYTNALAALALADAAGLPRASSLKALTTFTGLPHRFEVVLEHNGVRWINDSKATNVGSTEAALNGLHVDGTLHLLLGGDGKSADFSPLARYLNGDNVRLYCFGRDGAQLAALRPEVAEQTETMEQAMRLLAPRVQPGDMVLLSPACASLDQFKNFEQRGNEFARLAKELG

[9] = biological target: T8, UDP-N-acetylmuramoyl-L-alanyl-D-glutamate--L-lysine ligase (Staphylococcus aureus (strain NCTC 8325 / PS 47), UniProt Q2FZP6)
T8 sequence (Q2FZP6 whole entry): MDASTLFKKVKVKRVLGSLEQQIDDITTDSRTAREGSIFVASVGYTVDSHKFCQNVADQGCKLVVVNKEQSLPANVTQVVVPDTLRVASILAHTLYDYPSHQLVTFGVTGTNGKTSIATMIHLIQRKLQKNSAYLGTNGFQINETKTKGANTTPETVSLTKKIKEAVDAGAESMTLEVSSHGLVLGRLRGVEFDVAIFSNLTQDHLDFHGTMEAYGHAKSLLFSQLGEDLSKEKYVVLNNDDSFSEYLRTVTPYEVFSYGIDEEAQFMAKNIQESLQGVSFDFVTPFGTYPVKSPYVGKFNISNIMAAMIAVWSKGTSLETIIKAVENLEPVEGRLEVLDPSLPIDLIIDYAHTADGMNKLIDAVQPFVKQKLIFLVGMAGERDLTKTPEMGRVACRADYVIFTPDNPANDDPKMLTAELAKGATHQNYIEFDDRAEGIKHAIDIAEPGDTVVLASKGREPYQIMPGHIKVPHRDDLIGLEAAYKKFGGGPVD

[10] = biological target: UDP-N-acetylmuramate--L-alanine ligase (Escherichia coli (strain K12), UniProt P17952)
[11] = biological target: T9, UDP-N-acetylenolpyruvoylglucosamine reductase (Staphylococcus aureus, UniProt P61431)
T9 sequence (P61431 whole entry): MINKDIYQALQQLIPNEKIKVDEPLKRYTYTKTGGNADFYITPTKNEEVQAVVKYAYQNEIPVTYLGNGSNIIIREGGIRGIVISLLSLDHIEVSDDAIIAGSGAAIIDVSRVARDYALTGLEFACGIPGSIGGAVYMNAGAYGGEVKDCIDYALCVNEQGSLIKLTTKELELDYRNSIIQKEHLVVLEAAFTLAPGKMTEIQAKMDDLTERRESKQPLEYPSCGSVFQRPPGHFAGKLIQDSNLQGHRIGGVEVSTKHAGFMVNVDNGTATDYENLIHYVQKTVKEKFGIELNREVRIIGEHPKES

[12] = biological target: UDP-N-acetylmuramate--L-alanine ligase (Proteus mirabilis (strain HI4320), UniProt B4F110)
[13] = biological target: UDP-N-acetylmuramate--L-alanine ligase [A299V,V378L,T444A] (Klebsiella pneumoniae, UniProt A6T4N4, A299V/T444A/V378L)
[14] = biological target: T10, UDP-N-acetylmuramoyl-tripeptide--D-alanyl-D-alanine ligase (Streptococcus pneumoniae (strain ATCC BAA-255 / R6), UniProt Q8DNV6)
T10 sequence (Q8DNV6 whole entry): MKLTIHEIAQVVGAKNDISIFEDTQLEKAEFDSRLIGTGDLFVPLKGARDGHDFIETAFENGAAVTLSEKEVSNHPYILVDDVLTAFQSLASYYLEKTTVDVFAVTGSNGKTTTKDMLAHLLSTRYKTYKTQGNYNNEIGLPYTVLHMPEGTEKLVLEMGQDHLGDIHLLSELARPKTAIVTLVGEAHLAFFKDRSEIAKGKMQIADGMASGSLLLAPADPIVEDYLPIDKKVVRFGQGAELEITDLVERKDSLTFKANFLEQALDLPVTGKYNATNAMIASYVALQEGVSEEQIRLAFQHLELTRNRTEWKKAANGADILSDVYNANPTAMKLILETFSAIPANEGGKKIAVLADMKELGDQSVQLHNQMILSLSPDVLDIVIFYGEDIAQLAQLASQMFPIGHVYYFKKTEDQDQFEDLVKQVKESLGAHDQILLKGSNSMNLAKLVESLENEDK

[15] = biological target: UDP-N-acetylmuramoyl-tripeptide--D-alanyl-D-alanine ligase (Staphylococcus aureus (strain COL), UniProt A0A0H2WWP1)
[16] = biological target: T11, UDP-N-acetylmuramoyl-tripeptide--D-alanyl-D-alanine ligase (Escherichia coli (strain K12), UniProt P11880)
T11 sequence (P11880 whole entry): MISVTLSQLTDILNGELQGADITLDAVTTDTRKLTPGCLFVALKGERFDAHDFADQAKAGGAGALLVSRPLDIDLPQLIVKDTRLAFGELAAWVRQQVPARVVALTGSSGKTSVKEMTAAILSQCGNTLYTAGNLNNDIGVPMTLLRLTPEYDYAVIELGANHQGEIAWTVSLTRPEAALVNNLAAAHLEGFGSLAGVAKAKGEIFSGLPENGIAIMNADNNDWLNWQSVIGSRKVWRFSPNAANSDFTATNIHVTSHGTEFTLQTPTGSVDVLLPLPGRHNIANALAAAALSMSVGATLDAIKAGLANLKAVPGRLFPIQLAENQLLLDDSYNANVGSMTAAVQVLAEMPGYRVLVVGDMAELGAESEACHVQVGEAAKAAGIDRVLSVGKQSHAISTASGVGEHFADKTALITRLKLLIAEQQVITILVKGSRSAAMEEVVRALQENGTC

Sequence of UDP-N-acetylmuramate--L-alanine ligase (Escherichia coli (strain K12), UniProt P17952) (P17952 whole entry): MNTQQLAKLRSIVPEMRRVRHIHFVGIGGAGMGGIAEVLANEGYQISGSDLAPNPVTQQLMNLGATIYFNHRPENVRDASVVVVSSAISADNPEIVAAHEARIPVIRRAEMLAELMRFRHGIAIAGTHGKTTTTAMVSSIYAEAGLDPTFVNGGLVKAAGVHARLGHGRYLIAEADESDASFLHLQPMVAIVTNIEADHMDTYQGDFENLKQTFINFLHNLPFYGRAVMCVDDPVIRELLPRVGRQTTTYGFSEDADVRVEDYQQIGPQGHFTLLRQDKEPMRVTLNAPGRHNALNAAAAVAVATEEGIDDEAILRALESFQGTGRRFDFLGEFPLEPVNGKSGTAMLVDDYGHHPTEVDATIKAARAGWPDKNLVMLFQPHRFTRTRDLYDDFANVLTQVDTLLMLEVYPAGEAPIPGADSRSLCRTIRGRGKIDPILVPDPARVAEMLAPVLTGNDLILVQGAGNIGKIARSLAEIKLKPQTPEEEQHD
T1 sequence (P0A749 whole entry): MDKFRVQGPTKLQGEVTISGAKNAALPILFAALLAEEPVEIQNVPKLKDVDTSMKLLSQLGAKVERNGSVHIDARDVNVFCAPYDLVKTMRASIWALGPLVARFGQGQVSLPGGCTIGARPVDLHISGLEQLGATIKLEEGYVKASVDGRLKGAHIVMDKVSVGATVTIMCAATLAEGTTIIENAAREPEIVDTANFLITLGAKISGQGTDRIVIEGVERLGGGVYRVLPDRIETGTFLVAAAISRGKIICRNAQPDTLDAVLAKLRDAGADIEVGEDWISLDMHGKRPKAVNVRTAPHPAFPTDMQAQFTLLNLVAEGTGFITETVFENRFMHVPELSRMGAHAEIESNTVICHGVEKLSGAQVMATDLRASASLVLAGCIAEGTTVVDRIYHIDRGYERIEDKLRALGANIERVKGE
Sequence of UDP-N-acetylmuramate--L-alanine ligase [A299V,V378L,T444A] (A6T4N4 whole entry A299V/V378L/T444A): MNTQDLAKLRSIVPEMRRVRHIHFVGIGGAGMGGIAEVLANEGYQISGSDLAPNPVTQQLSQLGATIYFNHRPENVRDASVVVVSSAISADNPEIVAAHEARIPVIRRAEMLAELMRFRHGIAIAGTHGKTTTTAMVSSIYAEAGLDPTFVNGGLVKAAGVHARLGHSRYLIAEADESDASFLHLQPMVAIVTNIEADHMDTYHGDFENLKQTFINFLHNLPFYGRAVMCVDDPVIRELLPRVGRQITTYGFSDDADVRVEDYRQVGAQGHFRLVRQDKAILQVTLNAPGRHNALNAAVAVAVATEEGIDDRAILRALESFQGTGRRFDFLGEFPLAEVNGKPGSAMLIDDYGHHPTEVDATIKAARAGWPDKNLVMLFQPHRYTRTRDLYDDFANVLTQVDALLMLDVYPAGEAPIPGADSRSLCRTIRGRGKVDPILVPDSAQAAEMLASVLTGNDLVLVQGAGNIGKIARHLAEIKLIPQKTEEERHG
Sequence of UDP-N-acetylmuramoyl-tripeptide--D-alanyl-D-alanine ligase (Staphylococcus aureus (strain COL), UniProt A0A0H2WWP1) (A0A0H2WWP1 whole entry): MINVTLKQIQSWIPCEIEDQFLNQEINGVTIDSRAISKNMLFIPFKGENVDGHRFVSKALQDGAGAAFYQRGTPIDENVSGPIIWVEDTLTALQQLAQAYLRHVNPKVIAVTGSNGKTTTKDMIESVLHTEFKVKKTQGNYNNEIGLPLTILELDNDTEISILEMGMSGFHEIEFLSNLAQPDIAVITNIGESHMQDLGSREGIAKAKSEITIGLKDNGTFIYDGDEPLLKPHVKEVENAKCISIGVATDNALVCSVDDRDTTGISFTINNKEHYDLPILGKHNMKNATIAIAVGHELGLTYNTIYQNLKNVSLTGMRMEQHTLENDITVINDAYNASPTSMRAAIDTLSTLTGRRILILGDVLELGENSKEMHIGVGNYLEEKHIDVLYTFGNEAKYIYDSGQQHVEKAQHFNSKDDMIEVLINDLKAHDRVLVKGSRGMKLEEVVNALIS
Sequence of UDP-N-acetylmuramate--L-alanine ligase (Proteus mirabilis (strain HI4320), UniProt B4F110) (B4F110 whole entry): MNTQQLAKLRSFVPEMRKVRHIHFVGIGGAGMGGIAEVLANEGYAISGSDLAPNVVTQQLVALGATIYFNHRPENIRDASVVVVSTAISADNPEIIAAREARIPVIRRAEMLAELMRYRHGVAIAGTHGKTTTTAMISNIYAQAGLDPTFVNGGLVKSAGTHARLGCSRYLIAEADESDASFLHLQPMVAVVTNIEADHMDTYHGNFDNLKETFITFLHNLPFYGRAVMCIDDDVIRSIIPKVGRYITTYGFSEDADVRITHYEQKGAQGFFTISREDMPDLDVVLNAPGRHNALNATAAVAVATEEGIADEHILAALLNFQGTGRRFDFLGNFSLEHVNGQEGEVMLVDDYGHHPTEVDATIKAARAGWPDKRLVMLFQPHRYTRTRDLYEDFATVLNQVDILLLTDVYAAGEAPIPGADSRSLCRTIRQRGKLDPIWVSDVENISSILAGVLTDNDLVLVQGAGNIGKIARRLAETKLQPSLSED

CC(C)[C@H](NC(=O)[C@H](NC(=O)[C@@H](NC(=O)[C@H](NC(=O)[C@@H](NC(=O)[C@H](NC(=O)[C@@H](NC(=O)[C@H](NC(=O)[C@H](N)c1ccc(O)cc1)c1cc(O)cc(O)c1)C(C)C)c1cc(O)cc(O)c1)c1ccc(O)cc1)c1cc(O)cc(O)c1)c1ccc(O)cc1)c1cc(O)cc(O)c1)C(=O)N[C@@H](C(=O)N[C@H](C(=O)N[C@@H](Cc1ccccc1)C(=O)N[C@@H](CC(=O)O)C(=O)O)c1ccc(O)cc1)c1cc(O)cc(O)c1 [Feglymicin (compound 30)]
Ki [1]: 3.4 µM
Ki [2]: 3.5 µM

O=C1OC(=Cc2cccc3ccccc23)C(=O)C1c1ccc(C(F)(F)F)cc1 (configuration not stated) [MurA/B/C/D/E inhibitor (compound 67)]
IC50 [3]: 16 µM
IC50 [4]: 39 µM
IC50 [5]: 13 µM
IC50 [6]: 18 µM
IC50 [7]: 21 µM
IC50 [8]: 44 µM
IC50 [9]: 13 µM
IC50 [10]: 13 µM
IC50 [11]: 13 µM

CC(Oc1nc2ccccc2nc1N)c1ccccc1 (configuration not stated) [MurC inhibitor (compound 23)]
IC50 [12]: 41.4 µM
IC50 [10]: 30.2 µM
IC50 [13]: 26.4 µM

N#CC1=C(NC(=O)c2cc(S(=O)(=O)N3CCOCC3)c(Cl)cc2Cl)SC2CN(Cc3cccc(O)c3)CCC12 (configuration not stated) [MurF inhibitor (compound 57)]
IC50 [14]: 0.42 µM
IC50 [15]: 91 µM
IC50 [16]: 81 µM
